Results reported in ChEMBL document CHEMBL1201862, “PubChem BioAssay data set” (2004).
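Protocol summary: plate cells (96-well), add compound at 5 concentrations, incubate 48 h, interpolate endpoints linearly. GI50 is the concentration that inhibits growth by half.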 Calls of active or inactive are those of the source. Cut-off read from the data, not from the text of the source: active = GI50 up to about 1.1 µM and inactive = higher.

What was measured:
Experiment in all cases: NCI-60 cell line screen, 48 h
[1] = test system: MCF7
[2] = test system: CAKI-1
[3] = test system: SNB-19
[4] = test system: MDA-MB-231
[5] = test system: HCT-116
[6] = test system: HOP-62
[7] = test system: ACHN
[8] = test system: Hs-578T
[9] = test system: HCC 2998
[10] = test system: NCI-H460
[11] = test system: SF-539
[12] = test system: SF-295
[13] = test system: SK-MEL-5
[14] = test system: A498
[15] = test system: SR
[16] = test system: UO-31
[17] = test system: SW-620
[18] = test system: HCT-15
[19] = test system: SNB-75
[20] = test system: SN12C

Compound	GI50 [1]	GI50 [2]	GI50 [3]	GI50 [4]	GI50 [5]	GI50 [6]	GI50 [7]	GI50 [8]	GI50 [9]	GI50 [10]	GI50 [11]	GI50 [12]	GI50 [13]	GI50 [14]	GI50 [15]	GI50 [16]	GI50 [17]	GI50 [18] [µM]	GI50 [19]	GI50 [20]
C[C@H]1[C@H](C)CC[C@]2(C(=O)OC3OC(CO)C(O)C(O)C3O)CC[C@]3(C)C(=CC[C@@H]4[C@@]5(C)C[C@H]6OC(=O)c7cc(O)c(O)c(O)c7-c7c(cc(O)c(O)c7O)C(=O)O[C@@H]6C(CO)(CO)[C@@H]5CC[C@]43C)[C@H]12 (stereo not given in full)	17 µM (inactive)	19.5 µM (inactive)	43.7 µM (inactive)	15.6 µM (inactive)	54.1 µM (inactive)	> 100 µM (inactive)	> 100 µM (inactive)	> 100 µM (inactive)	82.4 µM (inactive)	45.1 µM (inactive)	> 100 µM (inactive)	40.6 µM (inactive)	72.9 µM (inactive)	> 100 µM (inactive)	27 µM (inactive)	58.1 µM (inactive)	37.6 µM (inactive)	24.8	> 100 µM (inactive)	58.3 µM (inactive)
N#C/C=C1\C=CC(O)C(O)C1OC1OC(CO)C(O)C(O)C1O (stereo not given)	> 100 µM (inactive)	> 100 µM (inactive)	> 100 µM (inactive)	> 100 µM (inactive)	> 100 µM (inactive)	> 100 µM (inactive)	> 100 µM (inactive)	> 100 µM (inactive)	> 100 µM (inactive)	> 100 µM (inactive)	> 100 µM (inactive)	> 100 µM (inactive)	> 100 µM (inactive)	> 100 µM (inactive)	> 10 µM (inactive)	> 100 µM (inactive)	> 100 µM (inactive)	> 100	> 100 µM (inactive)	> 100 µM (inactive)
CCOP(=O)(CCCC(O)CNc1cc(Cl)nc(N)n1)OCC (stereo not given)	> 100 µM (inactive)	> 100 µM (inactive)		> 100 µM (inactive)	> 100 µM (inactive)	> 100 µM (inactive)	> 100 µM (inactive)	> 100 µM (inactive)	> 100 µM (inactive)	> 100 µM (inactive)	> 100 µM (inactive)	> 100 µM (inactive)	> 100 µM (inactive)	> 100 µM (inactive)	> 100 µM (inactive)	> 100 µM (inactive)	> 100 µM (inactive)	> 100	> 100 µM (inactive)	> 100 µM (inactive)
CC(=O)Nc1ccc(/C=C2/NC(=S)N(/C=C3\C(=O)Oc4ccccc4C3=O)C2=O)cc1	> 100 µM (inactive)	49.5 µM (inactive)	> 100 µM (inactive)	16.2 µM (inactive)	52.7 µM (inactive)	48 µM (inactive)	> 100 µM (inactive)	22.5 µM (inactive)	43.2 µM (inactive)	35.6 µM (inactive)	96.2 µM (inactive)	49.8 µM (inactive)	77.6 µM (inactive)	87.5 µM (inactive)	39.3 µM (inactive)	39.5 µM (inactive)	91 µM (inactive)	32.7	15.8 µM (inactive)	94.6 µM (inactive)
C#CC1=CC(=O)C(OC)=CC1=O	14.8 µM (inactive)	18.6 µM (inactive)	> 100 µM (inactive)	16.4 µM (inactive)	13.3 µM (inactive)	16.5 µM (inactive)	3.44 µM (inactive)	95.1 µM (inactive)	30.1 µM (inactive)	34.5 µM (inactive)	42.7 µM (inactive)	29.4 µM (inactive)	16.2 µM (inactive)	> 100 µM (inactive)	6.7 µM (inactive)	4.68 µM (inactive)	17.5 µM (inactive)	16.4	< 0.01 µM (active)	17.6 µM (inactive)
COc1cc2c(=O)cnoc2cc1O	> 100 µM (inactive)	> 100 µM (inactive)	> 100 µM (inactive)	> 100 µM (inactive)			> 100 µM (inactive)	> 100 µM (inactive)	> 100 µM (inactive)	> 100 µM (inactive)	> 100 µM (inactive)	> 100 µM (inactive)	> 100 µM (inactive)	39.5 µM (inactive)	> 100 µM (inactive)	> 100 µM (inactive)	> 100 µM (inactive)	> 100	> 100 µM (inactive)	> 100 µM (inactive)
O=C(NNC(=O)c1ccccc1O)c1cccc(Br)c1	6.71 µM (inactive)	24.3 µM (inactive)	73.6 µM (inactive)	18.2 µM (inactive)	24.1 µM (inactive)	56.8 µM (inactive)	7 µM (inactive)	> 66.7 µM (inactive)	17.7 µM (inactive)	8.43 µM (inactive)	> 70 µM (inactive)	27.3 µM (inactive)	24.2 µM (inactive)	> 92.9 µM (inactive)	12.9 µM (inactive)	10.7 µM (inactive)	35 µM (inactive)	6.85	> 71.8 µM (inactive)	98.9 µM (inactive)
CC(=O)O[C@H]1C(=O)[C@@]2(C)[C@H]([C@H](OC(=O)c3ccccc3)[C@]3(O)C[C@H](OC(=O)[C@H](OC(=O)OCCC(O)CO)[C@@H](NC(=O)c4ccccc4)c4ccccc4)C(C)=C1C3(C)C)[C@]1(OC(C)=O)CO[C@@H]1C[C@@H]2O (stereo not given in full)	< 0.01 µM (active)	0.631 µM (active)	< 0.01 µM (active)	< 0.0135 µM (active)	< 0.01 µM (active)	< 0.01 µM (active)	1.09 µM (active)	< 0.01 µM (active)	< 0.01 µM (active)	< 0.01 µM (active)	< 0.01 µM (active)	0.0192 µM (active)	< 0.01 µM (active)	0.141 µM (active)	< 0.01 µM (active)	0.989 µM (active)	< 0.01 µM (active)	0.303	< 0.0114 µM (active)	< 0.01 µM (active)
CCSc1cc2c(cc1O)CC[C@@H]1[C@@H]2CC[C@]2(C)[C@@H](O)CC[C@@H]12	10.3 µM (inactive)	12.6 µM (inactive)	12.1 µM (inactive)	4.94 µM (inactive)	8.57 µM (inactive)	15.7 µM (inactive)	11.3 µM (inactive)	5.33 µM (inactive)	13.9 µM (inactive)	6.68 µM (inactive)	15.8 µM (inactive)		10.8 µM (inactive)	15.6 µM (inactive)	4.88 µM (inactive)	15.4 µM (inactive)	3.47 µM (inactive)	5.68	15.2 µM (inactive)	17.7 µM (inactive)
CC(=O)OC12c3ccccc3C(c3ccccc31)C1C(=O)N(c3ccccc3O)C(=O)C12 (stereo not given)	> 100 µM (inactive)	> 100 µM (inactive)	84.9 µM (inactive)	> 100 µM (inactive)	> 100 µM (inactive)	96.4 µM (inactive)	> 100 µM (inactive)	> 100 µM (inactive)	> 100 µM (inactive)	> 100 µM (inactive)	> 100 µM (inactive)	80.2 µM (inactive)	> 100 µM (inactive)	90.2 µM (inactive)	> 100 µM (inactive)	50.4 µM (inactive)	> 100 µM (inactive)	> 100	46.3 µM (inactive)	> 100 µM (inactive)
CCC1(O)CC(OC2CC(N(C)C)C(OC3CC(O)C(OC4OC(C)C(=O)C=C4N)C(C)O3)C(C)O2)c2c(O)c3c(c(O)c2C1C(=O)OC)C(=O)c1cccc(O)c1C3=O (stereo not given)	0.002 µM (active)	0.00489 µM (active)	0.00929 µM (active)	0.0583 µM (active)	0.000617 µM (active)	0.0239 µM (active)	0.00418 µM (active)	0.0309 µM (active)	0.0302 µM (active)	0.000452 µM (active)	0.00759 µM (active)	0.00134 µM (active)	0.00417 µM (active)	0.00105 µM (active)	0.00413 µM (active)	0.0472 µM (active)	0.00225 µM (active)	0.0418	0.0311 µM (active)	0.0259 µM (active)
Cc1cc(/N=C/c2ccc(N(C)C)cc2)n(-c2ccccc2)n1	31 µM (inactive)	62.7 µM (inactive)	61.2 µM (inactive)	91.6 µM (inactive)	25.5 µM (inactive)	17 µM (inactive)	> 100 µM (inactive)	29.9 µM (inactive)	20.1 µM (inactive)	23.9 µM (inactive)	45.9 µM (inactive)	30.8 µM (inactive)	40.2 µM (inactive)	26.1 µM (inactive)	19.1 µM (inactive)	> 100 µM (inactive)	34.9 µM (inactive)	15.6	40.6 µM (inactive)	28.4 µM (inactive)
CCCc1cc(=O)oc2c3c(c4c(c12)OC(C)(C)C=C4)O[C@@H](C)[C@H](C)C3=O	17.6 µM (inactive)	28.9 µM (inactive)	17.8 µM (inactive)	11.8 µM (inactive)	10.4 µM (inactive)	18.5 µM (inactive)	12.4 µM (inactive)	15.3 µM (inactive)	15.3 µM (inactive)	15.8 µM (inactive)	17.7 µM (inactive)	16.6 µM (inactive)	15.8 µM (inactive)	14.7 µM (inactive)	10.2 µM (inactive)	15.8 µM (inactive)	13.4 µM (inactive)	15	13.6 µM (inactive)	18.7 µM (inactive)
N#Cc1c(-c2ccccc2)c(C#N)c(=S)n(C2OCC(O)C(O)C2O)c1N (stereo not given)	> 100 µM (inactive)	> 100 µM (inactive)	> 100 µM (inactive)	> 100 µM (inactive)		> 100 µM (inactive)	> 100 µM (inactive)	> 100 µM (inactive)	> 100 µM (inactive)	> 100 µM (inactive)	> 100 µM (inactive)	> 100 µM (inactive)	> 100 µM (inactive)	> 100 µM (inactive)	> 100 µM (inactive)	> 100 µM (inactive)	> 100 µM (inactive)	> 100	> 100 µM (inactive)	> 100 µM (inactive)
